Values after ≈ are worked out from the molar mass of the structure shown.
Assays:
Staphylococcus aureus [1] = assay: Antibacterial activity against ciprofloxacin resistant methicillin resistant Staphylococcus aureus OC5273; assay type: functional
Escherichia coli = assay: Antibacterial activity against Escherichia coli KL16; assay type: functional
Streptococcus pneumoniae = assay: Antibacterial activity against Streptococcus pneumoniae ATCC 49619; assay type: functional
Staphylococcus aureus [2] = assay: Antibacterial activity against ciprofloxacin resistant methicillin resistant Staphylococcus aureus OC4222; assay type: functional
[3] = Inhibition of bacterial DNA topoisomerase 4
Staphylococcus aureus [4] = assay: Antibacterial activity against ciprofloxacin resistant methicillin resistant Staphylococcus aureus OC4159; assay type: functional
[5] = Inhibition of bacterial DNA gyrase
Staphylococcus aureus [6] = assay: Antibacterial activity against quinolone susceptible methicillin resistant Staphylococcus aureus OC2878; assay type: functional
Staphylococcus aureus [7] = assay: Antibacterial activity against Staphylococcus aureus ATCC 13709; assay type: functional
Staphylococcus aureus [8] = assay: Antibacterial activity against ciprofloxacin resistant methicillin resistant Staphylococcus aureus OC3946; assay type: functional

Compound | MIC (Staphylococcus aureus [1]) | MIC (Escherichia coli) | MIC (Streptococcus pneumoniae) | MIC (Staphylococcus aureus [2]) | IC50 [3] | MIC (Staphylococcus aureus [4]) | IC50 [5] | MIC (Staphylococcus aureus [6]) | MIC (Staphylococcus aureus [7]) | MIC (Staphylococcus aureus [8])
COc1ccc2nccc(-n3cc4c(n3)CCC(NC(=O)c3cc5c(cc3F)SCC(=O)N5)C4)c2n1 (centres undefined) | 0.031 µg/mL (≈ 0.0614 µM) | 128 µg/mL (≈ 254 µM) | 2 µg/mL (≈ 3.96 µM) | 0.015 µg/mL (≈ 0.0297 µM) | 0.125 µg/mL (≈ 0.248 µM) | 0.007 µg/mL (≈ 0.0139 µM) | 0.12 µg/mL (≈ 0.238 µM) | 0.031 µg/mL (≈ 0.0614 µM) | 0.25 µg/mL (≈ 0.495 µM) | 0.007 µg/mL (≈ 0.0139 µM)
COc1ccc2nccc(-n3cc4c(n3)CCC(NCc3ccc5c(c3)NC(=O)CS5)C4)c2n1 (centres undefined) | 0.5 µg/mL (≈ 1.06 µM) | 1 µg/mL (≈ 2.12 µM) | 1 µg/mL (≈ 2.12 µM) | 0.125 µg/mL (≈ 0.265 µM) | 0.03 µg/mL (≈ 0.0635 µM) | 0.25 µg/mL (≈ 0.529 µM) | 0.125 µg/mL (≈ 0.265 µM) | 0.5 µg/mL (≈ 1.06 µM) | 0.25 µg/mL (≈ 0.529 µM) | 0.125 µg/mL (≈ 0.265 µM)
C[C@@H]1CN(c2c(F)c(N)c3c(=O)c(C(=O)O)cn(C4CC4)c3c2F)C[C@H](C)N1 [SPARFLOXACIN] | 16 µg/mL (≈ 40.8 µM) |  |  | 8 µg/mL (≈ 20.4 µM) |  | 16 µg/mL (≈ 40.8 µM) |  | 0.062 µg/mL (≈ 0.158 µM) | 0.062 µg/mL (≈ 0.158 µM) | 4 µg/mL (≈ 10.2 µM)
CCn1cc(C(=O)O)c(=O)c2cc(F)c(N3CCNCC3)cc21 [NORFLOXACIN] | > 128 µg/mL |  |  | > 128 µg/mL |  | > 128 µg/mL |  | 1 µg/mL (≈ 3.13 µM) | 1 µg/mL (≈ 3.13 µM) | 128 µg/mL (≈ 401 µM)
COc1ccc2nccc(-n3cc4c(n3)CCC(NC(=O)c3ccc5c(c3)OCCO5)C4)c2n1 (centres undefined) |  | > 128 µg/mL | 8 µg/mL (≈ 17.5 µM) |  | > 1 µg/mL |  | > 32 µg/mL |  | 0.5 µg/mL (≈ 1.09 µM) | 
COc1ccc2nccc(-n3cc4c(n3)CCC(NCc3ccc5c(c3)OCCCO5)C4)c2n1 (centres undefined) |  | > 128 µg/mL | 4 µg/mL (≈ 8.74 µM) |  | 1 µg/mL (≈ 2.19 µM) |  | 4 µg/mL (≈ 8.74 µM) |  | 1 µg/mL (≈ 2.19 µM) | 
COc1ccc2nccc(-n3cc4c(n3)CCC(NC(=O)c3cc5c(cc3Br)SCC(=O)N5)C4)c2n1 (centres undefined) |  | 2 µg/mL (≈ 3.54 µM) | 2 µg/mL (≈ 3.54 µM) |  | 0.25 µg/mL (≈ 0.442 µM) |  | 0.25 µg/mL (≈ 0.442 µM) |  | 0.125 µg/mL (≈ 0.221 µM) | 
COc1ccc2nccc(-n3cc4c(n3)CCC(NCc3ccc5c(c3)OCCO5)C4)c2c1 (centres undefined) | 1 µg/mL (≈ 2.26 µM) | 128 µg/mL (≈ 289 µM) | 1 µg/mL (≈ 2.26 µM) | 16 µg/mL (≈ 36.2 µM) | 0.06 µg/mL (≈ 0.136 µM) | 16 µg/mL (≈ 36.2 µM) | 2 µg/mL (≈ 4.52 µM) | 0.5 µg/mL (≈ 1.13 µM) | 0.5 µg/mL (≈ 1.13 µM) | 0.5 µg/mL (≈ 1.13 µM)
COc1ccc2nccc(-n3cc4c(n3)CCC(NC(=O)c3cc5c(cc3Br)SCC(=O)N5)C4)c2c1 (centres undefined) |  | 2 µg/mL (≈ 3.54 µM) | 2 µg/mL (≈ 3.54 µM) |  | 0.125 µg/mL (≈ 0.221 µM) |  | 0.5 µg/mL (≈ 0.886 µM) |  | 0.125 µg/mL (≈ 0.221 µM) | 
COc1ccc2nccc(-n3cc4c(n3)CCC(NC/C=C/c3ccccc3)C4)c2n1 (centres undefined) | 0.125 µg/mL (≈ 0.304 µM) |  | < 0.125 µg/mL | 0.062 µg/mL (≈ 0.151 µM) | < 0.015 µg/mL | 0.062 µg/mL (≈ 0.151 µM) | 0.12 µg/mL (≈ 0.292 µM) | 0.125 µg/mL (≈ 0.304 µM) | 0.06 µg/mL (≈ 0.146 µM) | 0.062 µg/mL (≈ 0.151 µM)
COc1ccc2nccc(-n3cc4c(n3)CCC(NCc3ccc5c(n3)NC(=O)CO5)C4)c2c1 (centres undefined) |  | 2 µg/mL (≈ 4.38 µM) | 2 µg/mL (≈ 4.38 µM) |  | 0.016 µg/mL (≈ 0.035 µM) |  | 0.06 µg/mL (≈ 0.131 µM) |  | 1 µg/mL (≈ 2.19 µM) | 
COc1ccc2nccc(-n3cc4c(n3)CCC(NC(=O)c3ccc5c(c3)NC(=O)CS5)C4)c2n1 (centres undefined) | 0.062 µg/mL (≈ 0.127 µM) | > 128 µg/mL | 4 µg/mL (≈ 8.22 µM) | 0.5 µg/mL (≈ 1.03 µM) | 0.25 µg/mL (≈ 0.514 µM) | 0.5 µg/mL (≈ 1.03 µM) | 0.25 µg/mL (≈ 0.514 µM) | 0.031 µg/mL (≈ 0.0637 µM) | 0.06 µg/mL (≈ 0.123 µM) | 0.007 µg/mL (≈ 0.0144 µM)
COc1ccc2nccc(-n3cc4c(n3)CCC(NCc3ccc5c(c3)NC(=O)CS5)C4)c2c1 (centres undefined) | 0.5 µg/mL (≈ 1.06 µM) | 2 µg/mL (≈ 4.24 µM) | 2 µg/mL (≈ 4.24 µM) | 0.25 µg/mL (≈ 0.53 µM) | 0.16 µg/mL (≈ 0.339 µM) | 0.25 µg/mL (≈ 0.53 µM) | 0.06 µg/mL (≈ 0.127 µM) | 0.5 µg/mL (≈ 1.06 µM) | 0.5 µg/mL (≈ 1.06 µM) | 0.25 µg/mL (≈ 0.53 µM)
O=C1CSc2ccc(C(=O)NC3CCc4nn(-c5cccc6cccnc56)cc4C3)cc2N1 (centres undefined) | 0.5 µg/mL (≈ 1.1 µM) | 16 µg/mL (≈ 35.1 µM) | 4 µg/mL (≈ 8.78 µM) | 4 µg/mL (≈ 8.78 µM) | 0.125 µg/mL (≈ 0.274 µM) | 4 µg/mL (≈ 8.78 µM) | 2 µg/mL (≈ 4.39 µM) | 0.25 µg/mL (≈ 0.549 µM) | 0.25 µg/mL (≈ 0.549 µM) | 0.125 µg/mL (≈ 0.274 µM)
COc1ccc2nccc(-n3cc4c(n3)CCC(NC(=O)c3ccc5c(c3)NC(=O)CO5)C4)c2c1 (centres undefined) |  | 2 µg/mL (≈ 4.26 µM) | 4 µg/mL (≈ 8.52 µM) |  | 0.5 µg/mL (≈ 1.06 µM) |  | 0.25 µg/mL (≈ 0.532 µM) |  | 0.125 µg/mL (≈ 0.266 µM) | 
O=C1CSc2ccc(C(=O)NC3CCc4nn(-c5ccnc6cc(Cl)ccc56)cc4C3)cc2N1 (centres undefined) |  | > 128 µg/mL | > 128 µg/mL |  | > 0.5 µg/mL |  | 16 µg/mL (≈ 32.7 µM) |  | 2 µg/mL (≈ 4.08 µM) | 
COc1ccc2nccc(-n3cc4c(n3)CCC(NC/C=C/c3ccccc3)C4)c2c1 (centres undefined) | 1 µg/mL (≈ 2.44 µM) |  | 1 µg/mL (≈ 2.44 µM) | 0.25 µg/mL (≈ 0.609 µM) |  | 0.5 µg/mL (≈ 1.22 µM) | 4 µg/mL (≈ 9.74 µM) | 0.5 µg/mL (≈ 1.22 µM) | 0.5 µg/mL (≈ 1.22 µM) | 0.5 µg/mL (≈ 1.22 µM)
COc1ccc2nccc(-n3cc4c(n3)CCC(NC(=O)c3ccc5c(c3)NC(=O)CS5)C4)c2c1 (centres undefined) | 0.25 µg/mL (≈ 0.515 µM) | 4 µg/mL (≈ 8.24 µM) | 2 µg/mL (≈ 4.12 µM) | 0.062 µg/mL (≈ 0.128 µM) | 0.125 µg/mL (≈ 0.257 µM) | 0.031 µg/mL (≈ 0.0638 µM) | 0.12 µg/mL (≈ 0.247 µM) | 0.125 µg/mL (≈ 0.257 µM) | 0.25 µg/mL (≈ 0.515 µM) | 0.015 µg/mL (≈ 0.0309 µM)
COc1ccc2nccc(-n3cc4c(n3)CCC(NC(=O)c3cc5c(cc3F)SCC(=O)N5)C4)c2c1 (centres undefined) | 0.062 µg/mL (≈ 0.123 µM) | 4 µg/mL (≈ 7.94 µM) | 1 µg/mL (≈ 1.99 µM) | 0.031 µg/mL (≈ 0.0616 µM) | 0.25 µg/mL (≈ 0.496 µM) | 0.031 µg/mL (≈ 0.0616 µM) | 8 µg/mL (≈ 15.9 µM) | 0.062 µg/mL (≈ 0.123 µM) | 0.03 µg/mL (≈ 0.0596 µM) | 0.015 µg/mL (≈ 0.0298 µM)

From ChEMBL document CHEMBL1147922, “Tetrahydroindazole inhibitors of bacterial type II topoisomerases. Part 2: SAR development and potency against multidrug-resistant strains” (Bioorg Med Chem Lett, 2007)
